Data: patent US20100196355A1, “Immunophilin Ligands and Methods for Modulating Immunophilin and Calcium Channel Activity” (Wyeth, priority 2007, published 2010)

Tests used:
[1] = system: His6-tagged FKBP52; experiment: [3H]-FK506 binding on Ni-chelated FLASH plate; set-up: species or system human; conditions: for binding selectivity for FKBP52 versus FKBP12, higher than that of rapamycin: relative to rapamycin
Procedure: Reactions were carried out in triplicate at 25° C. for 30 min. Kd were calculated using methods described by Carreras (Anal. Biochem. 298, 57-61 (2001)).

[2] = system: rat cortical neuron cultures; experiment: Transcriptional profiling of cortical neuron cultures; type: cell-based; conditions: 10 μM
Procedure: Cortical neuron cultures were prepared from E16 rat embryos. After plating for 24 hrs, cultures were treated with 10 μM immunophilin ligands and the corresponding vehicle. After treatment for 4 hrs, 12 hrs, 24 hrs and 48 hrs, cells were lysed. Total RNA from each sample was extracted with the RNEASY® Mini Kit (QIAGEN®). Double stranded cDNA was synthesized from 2 μg of each RNA sample using the […]® System (INVITROGEN®), purified, transcribed in vitro to prepare biotinylated cRNA using T7 RNA polymerase in the presence of biotin labeled UTP and CTP. The fragmented cRNAs were hybridized to a Rat Genome 230 2.0 […]® (AFFYMETRIX®, Santa Clara, Calif.) as recommended by the manufacturer. Hybridized arrays were stained according to manufacture protocols on a Fluidics Station 450 and subsequently scanned on an AFFYMETRIX® scanner 3000. The raw data was generated using AFFYMETRIX® MAS 5.0 Software. Transcriptional profiling data were analyzed in Ingenuity.

## CO[C@H]1C[C@@H]2CC[C@@H](C)[C@@](O)(O2)C(=O)C(=O)N2CCCCC2C(=O)O[C@H]([C@H](C)C[C@@H]2CC[C@@H](O)[C@H](OC)C2)CC(=O)[C@H](C)/C=C(\C)[C@@H](O)[C@@H](OC)C(=O)[C@H](C)C[C@H](C)C2CC[C@H](/C=C/1C)ON2c1ccccc1 (some centres unmarked) [Rapamycin analogue II, 9,27-dihydroxy-3-{2-[4-hydroxy-3-methoxycyclohexyl]-1-methylethyl}-10,21-dimethoxy-6,8,12,14,20,26-hexamethyl-37-phenyl-4,9,10,12,13,14,15,16,17,18,21,22,23,24,25,26,27,32,33,34,34a-henicosahydro-3H-23,27-epoxy-18,15-(epoxyimino)pyrido[2,1-c][1,4]oxazacyclohentriacontine-1,5,11,28,29(6H, 31H)-pentone]
[1]
  Kd(FKBP12)/Kd(FKBP52): 229
  binding selectivity for FKBP52 versus FKBP12, higher than that of rapamycin: 687 fold
[1]; listed as rapamycin analogue II
  binding selectivity for FKBP52 versus FKBP12, higher than that of rapamycin: at least 600 fold
[2]; ACTA1
  fold change vs DMSO, ACTA1: −1.6 fold
[2]; ACTA2
  fold change vs DMSO, ACTA2: 1.37 fold
[2]; AKAP5
  fold change vs DMSO, AKAP5: −1.5 fold
[2]; ASPH
  fold change vs DMSO, ASPH: −3.27 fold
[2]; ATP2A2
  fold change vs DMSO, ATP2A2: 2 fold
[2]; ATP2B1
  fold change vs DMSO, ATP2B1: 1.81 fold
[2]; ATP2B3
  fold change vs DMSO, ATP2B3: −1.45 fold
[2]; ATP2C1
  fold change vs DMSO, ATP2C1: −1.32 fold
[2]; CABIN1
  fold change vs DMSO, CABIN1: 1.34 fold
[2]; CACNA1B
  fold change vs DMSO, CACNA1B: −1.45 fold
[2]; CACNA1C
  fold change vs DMSO, CACNA1C: 1.82 fold
[2]; CACNA1D
  fold change vs DMSO, CACNA1D: −1.28 fold
[2]; CACNA2D1
  fold change vs DMSO, CACNA2D1: 5.73 fold
[2]; CACNB1
  fold change vs DMSO, CACNB1: −1.14 fold
[2]; CACNG2
  fold change vs DMSO, CACNG2: −2 fold
[2]; CACNG3
  fold change vs DMSO, CACNG3: −2.46 fold
[2]; CALM1
  fold change vs DMSO, CALM1: −1.63 fold
[2]; CALM2
  fold change vs DMSO, CALM2: −1.33 fold
[2]; CALM3
  fold change vs DMSO, CALM3: −1.52 fold
[2]; CALR
  fold change vs DMSO, CALR: 1.19 fold
[2]; CAMK1
  fold change vs DMSO, CAMK1: −1.43 fold
[2]; CAMK1G
  fold change vs DMSO, CAMK1G: −2.26 fold
[2]; CAMK2A
  fold change vs DMSO, CAMK2A: −4.13 fold
[2]; CAMK2B
  fold change vs DMSO, CAMK2B: −1.88 fold
[2]; CAMK2D
  fold change vs DMSO, CAMK2D: −1.48 fold
[2]; CAMK4
  fold change vs DMSO, CAMK4: −1.33 fold
[2]; CHP
  fold change vs DMSO, CHP: 1.54 fold
[2]; CREBBP
  fold change vs DMSO, CREBBP: 5.84 fold
[2]; CYP27B1
  fold change vs DMSO, CYP27B1: −1.38 fold
[2]; DHCR7
  fold change vs DMSO, DHCR7: 1.73 fold
[2]; DSCR1
  fold change vs DMSO, DSCR1: −1.82 fold
[2]; DSCR1L1
  fold change vs DMSO, DSCR1L1: −4.73 fold
[2]; EBP
  fold change vs DMSO, EBP: 1.32 fold
[2]; FDFT1
  fold change vs DMSO, FDFT1: 1.89 fold
[2]; FDPS
  fold change vs DMSO, FDPS: 2.07 fold
[2]; GRIA1
  fold change vs DMSO, GRIA1: −2.16 fold
[2]; GRIA2
  fold change vs DMSO, GRIA2: 2.71 fold
[2]; GRIN1
  fold change vs DMSO, GRIN1: −2.8 fold
[2]; GRIN2B
  fold change vs DMSO, GRIN2B: −1.57 fold
[2]; GRIN3A
  fold change vs DMSO, GRIN3A: −2.94 fold
[2]; GRINA
  fold change vs DMSO, GRINA: −1.2 fold
[2]; HDAC5
  fold change vs DMSO, HDAC5: 1.8 fold
[2]; HDAC6
  fold change vs DMSO, HDAC6: −1.13 fold
[2]; HDAC7A
  fold change vs DMSO, HDAC7A: 1.27 fold
[2]; HMGCR
  fold change vs DMSO, HMGCR: 2.26 fold
[2]; HTR3A
  fold change vs DMSO, HTR3A: −1.64 fold
[2]; IDI1
  fold change vs DMSO, IDI1: 2.85 fold
[2]; ITPR3
  fold change vs DMSO, ITPR3: −1.93 fold
[2]; LSS
  fold change vs DMSO, LSS: 13.19 fold
[2]; MAPK1
  fold change vs DMSO, MAPK1: 1.38 fold
[2]; MAPK3
  fold change vs DMSO, MAPK3: −1.19 fold
[2]; MVD
  fold change vs DMSO, MVD: 1.81 fold
[2]; MVK
  fold change vs DMSO, MVK: 1.6 fold
[2]; MYH1
  fold change vs DMSO, MYH1: −2.17 fold
[2]; MYH6
  fold change vs DMSO, MYH6: −5.93 fold
[2]; MYH7
  fold change vs DMSO, MYH7: −5.88 fold
[2]; MYL6B
  fold change vs DMSO, MYL6B: −1.68 fold
[2]; NQO1
  fold change vs DMSO, NQO1: 1.64 fold
[2]; PMVK
  fold change vs DMSO, PMVK: 1.25 fold
[2]; PPP3CB
  fold change vs DMSO, PPP3CB: −1.27 fold
[2]; PPP3CC
  fold change vs DMSO, PPP3CC: −1.27 fold
[2]; PPP3R1
  fold change vs DMSO, PPP3R1: −1.44 fold
[2]; PRKAG1
  fold change vs DMSO, PRKAG1: −1.24 fold
[2]; PRKAR1A
  fold change vs DMSO, PRKAR1A: −1.1 fold
[2]; PRKAR1B
  fold change vs DMSO, PRKAR1B: −3.18 fold
[2]; PRKAR2A
  fold change vs DMSO, PRKAR2A: −1.23 fold
[2]; PRKAR2B
  fold change vs DMSO, PRKAR2B: −1.5 fold
[2]; RAP1B
  fold change vs DMSO, RAP1B: −1.33 fold
[2]; SC5DL
  fold change vs DMSO, SC5DL: 1.94 fold
[2]; SQLE
  fold change vs DMSO, SQLE: 1.9 fold
[2]; TPM1
  fold change vs DMSO, TPM1: −2.83 fold
[2]; TPM3
  fold change vs DMSO, TPM3: −1.99 fold
[2]; TRPC1
  fold change vs DMSO, TRPC1: −1.08 fold
[2]; TRPC3
  fold change vs DMSO, TRPC3: −1.95 fold
[2]; TRPC4
  fold change vs DMSO, TRPC4: −5.42 fold
[2]; TRPV6
  fold change vs DMSO, TRPV6: 1.73 fold
[2]; plasminogen activator (PLAU)
  fold change, PLAU: −10 fold
